Results: ChEMBL document CHEMBL4765241, “Identification and Preclinical Pharmacology of ((1 R,3 S)-1-Amino-3-(( S)-6-(2-methoxyphenethyl)-5,6,7,8-tetrahydronaphthalen-2-yl)cyclopentyl)methanol (BMS-986166): A Differentiated Sphingosine-1-phosphate Receptor 1 (S1P) Modulator Advanced into Clinical Trials” (J Med Chem, 2019)
Each block holds one compound with its values, some of them ahead of it.

Columns and labels:
[1] = test system: Rattus norvegicus; assay: Reduction in circulating lymphocytes in Lewis rat blood at 2 mg/kg, po measured at 4 hrs by hematology analyzer based analysis; format: functional; parameters: scale not given: the % may be the effect or the level left
[2] = Drug metabolism in Lewis rat blood assessed as concentration of parent compound at 2 mg/kg, po measured at 4 hrs by LC-MS/MS analysis; format: ADME, organism-based; conditions: read-out: Ct
[3] = test system: Rattus norvegicus; assay: Reduction in circulating lymphocytes in Lewis rat blood at 2 mg/kg, po measured at 24 hrs by hematology analyzer based analysis; format: functional; parameters: scale not given: the % may be the effect or the level left
[4] = Drug metabolism in Lewis rat blood assessed as concentration of parent compound at 2 mg/kg, po measured at 24 hrs by LC-MS/MS analysis; format: ADME, organism-based; conditions: read-out: Ct
[5] = Half-life in Lewis rat at 2 mg/kg, po measured over 72 hrs by LC-MS/MS analysis; format: ADME, organism-based; conditions: in vivo
[6] = Ratio of drug metabolism in Lewis rat blood assessed as phosphate ester metabolite to parent drug at 2 mg/kg, po measured at 24 hrs by LC-MS/MS analysis; format: ADME, organism-based; conditions: in vivo
[7] = Pulmonary toxicity in Lewis rat assessed as elevation of BAL protein level at 25 mg/kg by advia1800 chemistry analyzer; format: organism-based; conditions: in vivo
[8] = test system: Rattus norvegicus; assay: Reduction in circulating lymphocytes in Lewis rat blood assessed as effective dose after oral dosing measured at 24 hrs by hematology analyzer based analysis; format: functional
[9] = test system: Rattus norvegicus; assay: Drug metabolism in Lewis rat blood assessed as concentration of phosphate ester metabolite formation at 2 mg/kg, po measured at 4 hrs by LC-MS/MS analysis; conditions: in vivo
[10] = test system: Mus musculus; assay: Reduction in circulating lymphocytes in Balb/c mouse blood at 1 mg/kg, po measured at 4 hrs by hematology analyzer based analysis; format: functional; parameters: scale not given: the % may be the effect or the level left
[11] = test system: Mus musculus; assay: Reduction in circulating lymphocytes in Balb/c mouse blood at 15 mg/kg, po measured at 4 hrs by hematology analyzer based analysis; format: functional; parameters: scale not given: the % may be the effect or the level left
[12] = test system: Mus musculus; assay: Reduction in circulating lymphocytes in Balb/c mouse blood at 1 mg/kg, po measured at 24 hrs by hematology analyzer based analysis; format: functional; parameters: scale not given: the % may be the effect or the level left
[13] = test system: Mus musculus; assay: Reduction in circulating lymphocytes in Balb/c mouse blood at 15 mg/kg, po measured at 24 hrs by hematology analyzer based analysis; format: functional; parameters: scale not given: the % may be the effect or the level left
[14] = Drug metabolism in Balb/c mouse blood assessed as concentration of parent compound at 1 mg/kg, po measured at 4 hrs by LC-MS/MS analysis; format: ADME, organism-based; conditions: Balb/c, blood, read-out: Ct
[15] = Drug metabolism in Balb/c mouse blood assessed as concentration of parent compound at 15 mg/kg, po measured at 4 hrs by LC-MS/MS analysis; format: ADME, organism-based; conditions: read-out: Ct
[16] = Drug metabolism in Balb/c mouse blood assessed as concentration of phosphate ester metabolite formation at 1 mg/kg, po measured at 4 hrs by LC-MS/MS analysis; format: ADME, organism-based; conditions: in vivo, BLD = below limit of detection
[17] = Drug metabolism in Balb/c mouse blood assessed as concentration of phosphate ester metabolite formation at 15 mg/kg, po measured at 4 hrs by LC-MS/MS analysis; format: ADME, organism-based; conditions: in vivo
[18] = Drug metabolism in Balb/c mouse blood assessed as concentration of parent compound at 1 mg/kg, po measured at 24 hrs by LC-MS/MS analysis; format: ADME, organism-based; conditions: Balb/c, blood, read-out: Ct
[19] = Drug metabolism in Balb/c mouse blood assessed as concentration of parent compound at 15 mg/kg, po measured at 24 hrs by LC-MS/MS analysis; format: ADME, organism-based; conditions: read-out: Ct
[20] = Drug metabolism in Balb/c mouse blood assessed as concentration of phosphate ester metabolite formation at 1 mg/kg, po measured at 24 hrs by LC-MS/MS analysis; format: ADME, organism-based; conditions: in vivo
[21] = Drug metabolism in Balb/c mouse blood assessed as concentration of phosphate ester metabolite formation at 15 mg/kg, po measured at 24 hrs by LC-MS/MS analysis; format: ADME, organism-based; conditions: in vivo
[22] = Ratio of drug metabolism in Balb/c mouse blood assessed as phosphate ester metabolite to parent drug at 1 mg/kg, po measured at 24 hrs by LC-MS/MS analysis; format: ADME, organism-based; conditions: in vivo
[23] = Ratio of drug metabolism in Balb/c mouse blood assessed as phosphate ester metabolite to parent drug at 15 mg/kg, po measured at 24 hrs by LC-MS/MS analysis; format: ADME, organism-based; conditions: in vivo

concentration at 4 h [2]: 190 nM
concentration at 24 h [4]: 40 nM
half-life [5]: 11 h
Ratio [6]: 0.4
Drug metabolism [9]: 10 nM
Compound: COc1ccc(CC[C@@H]2CCc3cc([C@H]4CC[C@](N)(CO)C4)ccc3C2)cc1
Activity [1]: 21%
Activity [3]: 81%
Activity [7]: 26 mg/dL
ED50 [8]: 0.5 mg/kg

concentration at 4 h [14]: 13 nM
concentration at 4 h [15]: 150 nM
Drug metabolism [16]: Bld
Drug metabolism [17]: 110 nM
concentration at 24 h [18]: 12 nM
concentration at 24 h [19]: 160 nM
Drug metabolism [20]: 34 nM
Drug metabolism [21]: 360 nM
Ratio [22]: 2.8
Ratio [23]: 2.3
concentration at 4 h [2]: 130 nM
concentration at 24 h [4]: 140 nM
half-life [5]: > 75 h
Ratio [6]: 6
Drug metabolism [9]: 150 nM
Compound: N[C@]1(CO)CC[C@H](c2ccc3c(c2)CC[C@@H](CCc2ccccc2)C3)C1
Activity [10]: 10%
Activity [11]: 81%
Activity [12]: 52%
Activity [13]: 88%
Activity [1]: 43%
Activity [3]: 82%
